Converted amounts (≈) assume the structure as drawn. Read-outs that look alike come from different tables or passages of the source.

What all share (type): cell-based
Assay [1] deals with Candida albicans. The assay is described as follows: In vitro antifungal drug sensitivity test (microdilution method), Candida albicans. The note with it: for MIC: read-out: Antifungal activity MIC. An excerpt: (§1) A microdilution method (Pierce C G, Uppuluri P, Tristan A R, et al. A simple and reproducible 96-well plate-based method for the formation of fungal biofilms and its application to antifungal susceptibility testing [J]. Nat Protoc, 2008, 3 (9): 1494-1500.) is adopted, and its experimental procedure refers to the M38-A2 and M27-A2 solutions (Espinel-Ingroff A, Fothergill A, Fuller J, et al. Wild-type MIC distributions and epidemiological cutoff values for caspofungin and Aspergillus Spp. for the CLSI broth microdilution method (M38-A2 document) [J]. Antimicrobl Agents Chemother, 2011, 55 (6): 2855-2859.). Three tested strains (Candida albicans, Trichophyton mentaqrophytes and Trichophyton rubrum) are used as indicator bacteria to carry out in vitro antifungal drug sensitivity screening experiment for the compounds AAP-1-AAP6.
(§2) Control drugs: ketoconazole (purchased from Shanghai Boliang Biotechnology Co., Ltd.), Aaptamine (same as Embodiment 2).

For assay [2], the system named is Trichophyton mentaqrophytes. As to the kind of experiment: In vitro antifungal drug sensitivity test (microdilution method), Trichophyton mentaqrophytes. Particulars: for MIC: Trichophyton, read-out: Antifungal activity MIC.
From the text: as §1, §2
Background: Dilution methods test growth across graded concentrations, often in twofold steps.

Assay [3] concerns Trichophyton rubrum. As to the kind of experiment: In vitro antifungal drug sensitivity test (microdilution method), Trichophyton rubrum. Particulars: for MIC: read-out: Antifungal activity MIC.
From the text: as §1, §2

Assay [4] has as its system human lung cancer stem cell PC9-Oct4. As to the kind of experiment: In vitro anti-lung cancer stem cell test (CCK-8 cell viability), PC9-Oct4. The note with it: read-out: Half effective inhibitory concentration IC50 against tumor cells. The procedure: (§3) In vitro anti-lung cancer stem cell test is carried out on the compounds AAP-1-6 of the present invention, and the lung cancer stem cell lines used are as follows:
(§4) Human lung cancer cell PC9 is purchased from ATCC with ATCC number 32727.
(§5) In addition, Oct4-GFP and Nanog-GFP are highly expressed by lentivirus transfection.
(§6) The original cell culture medium for Human lung cancer stem cells PC9-Nanog and PC9-Oct4 is discarded, 3 mL of PBS is added to rinse the cells twice; 500 μL of 0.25% trypsin is then added for digestion for 3 minutes at 37° C.; and 3 mL of a complete medium is added to terminate the digestion. The cells are pipetted gently with a pipette to make a single cell suspension; the single cell suspension is transferred to a 15 mL centrifuge tube and centrifuged at 800 rpm for 4 minutes; the supernatant is discarded, 6 mL of a complete medium is added to the centrifuge tube, and mixed by pipetting; counting is carried out to prepare […] single cell suspension; the suspension is added to a 96-well plate, 90 μL per well, (wells at the outer ring are not added with the suspension), and finally each well has 3000 cells; and the 96-well plate is incubated for 24 hours in a 37° C., 5% CO2 incubator.
(§7) 1 mg of each of the compounds AAP-1, AAP-2, AAP-3, AAP-4, AAP-5, and AAP-6 of the present invention is prepared into a 10 mM stock solution by using DMSO, and stored in a refrigerator with a temperature of 4° C. Thereafter, the stock solution is diluted with a medium to a 10 μM test solution. The final concentration is 10 μM in a 96-well plate, and the test solution is diluted three folds and added to the plate. Finally, the concentrations of the test solutions of the compounds of the present invention added to the plate are 10 μM, 3.3 μM, 1.1 μM, and 0.33 μM, respectively. The 96-well plate added with the compounds is incubated for 72 hours in a 37° C., 5% CO2 incubator. 72 hours later, 10 μL of CCK-8 solution is added to each well. 40 minutes to 60 minutes later, the absorbance at 450 nm, i.e., the OD value, is measured with a microplate reader. Cell viability is calculated after measuring the OD value of each group of cells. Cell viability (%)=(OD value of the treated group−OD value of the blank group)/(OD value of the blank control group−OD value of the blank group)×100%
(§8) The blank control group is not added with the compounds of the present invention, and the other steps are the same.
(§9) Meanwhile, the positive control drugs Cis-platinum (Shanghai Boliang Biotechnology Co., Ltd.) and Aaptamine (Reference: Enrique L. Larghi, Maria L. Bohn, Teodoro S. Kaufman, Aaptamine and related products. Their isolation, chemical syntheses, and biological activity, Tetrahedron 2009, 65 (22), 4257-4282 synthesis) are used as control groups for in vitro anti-tumor activity test, and the treatment method herein is the same as that for the compounds of the present invention.

In assay [5] the test system is human lung cancer stem cell PC9-Nanog. As to the kind of experiment: In vitro anti-lung cancer stem cell test (CCK-8 cell viability), PC9-Nanog. The note with it: read-out: Half effective inhibitory concentration IC50 against tumor cells. The procedure: as §3, §4, §5, §6, §7, §8, §9
[6] abbreviates: Trichophyton mentaqrophytes, microdilution.
The mark [7] stands for this setting: Homo sapiens, 72 h, PC9-Oct4 cells, 72 hours incubation, CCK-8.
[8] abbreviates: Homo sapiens, 72 h, PC9-Nanog cells, 72 hours incubation, CCK-8.
Where [9] appears, read: PC9-Oct4 cells, 72 hours incubation, CCK-8.
The mark [10] stands for this setting: PC9-Nanog cells, 72 hours incubation, CCK-8.

The MIC is the lowest concentration that inhibits growth of the organism. As for `COc1cc2ccnc3c2c(c1OC)NC=C3c1ccccc1` [AAP-1, 8,9-dimethoxy-3-phenyl-1H-benzo[de][1,6]naphthyridine], the MIC was over 30 µg/mL in assay [1] (microdilution), 25 µg/mL (≈ 82.1 µM) in assay [2] (setting [6]) and 12.5 µg/mL (≈ 41.1 µM) in assay [3] (microdilution). In addition, the results for the IC50 in assay [4] (setting [7]) and in assay [5] (setting [8]) were 1.04 ± 0.11 µM and 1.24 ± 0.02 µM, respectively.
For `COc1c(OC)c2c3c(nccc3c1-c1ccccc1)C=CN2` [AAP-2, 8,9-dimethoxy-7-phenyl-1H-benzo[de][1,6]naphthyridine], the MIC is over 30 µg/mL in assay [1] (microdilution), 25 µg/mL (≈ 82.1 µM) in assay [2] (setting [6]) and 25 µg/mL (≈ 82.1 µM) in assay [3] (microdilution). In addition, the IC50 is 7.22 ± 0.04 µM in assay [4] (setting [7]) and 6.82 ± 0.16 µM in assay [5] (setting [8]).
Regarding `COc1c(OC)c2c3c(nccc3c1-c1cccc(C(C)C)c1)C(c1cccc(C(C)C)c1)=CN2` [AAP-6, 3,7-bis(3-isopropyphenyl)-8,9dimethoxy-1H-benzo[de][1,6] naphthyridine], the “Antifungal activity MIC” value is 25 µg/mL in assay [1] (microdilution), over 30 µg/mL in assay [2] (setting [6]) and over 30 µg/mL in assay [3] (microdilution). Moreover, the IC50 in assay [4] (setting [9]) is 3.82 ± 0.15 µM; in assay [5] (setting [10]) it was 4.82 ± 0.12 µM.
On to `COc1cc2ccnc3c2c(c1OC)NC=C3` [Aaptamine], for which the minimal inhibitory concentration (MIC) in assay [1], in assay [2] and in assay [3] was over 30 µg/mL in each case. The “Antifungal activity MIC” value in assay [3] (microdilution) is over 30 µg/mL. The IC50 in assay [4] (Homo sapiens, 72 h) was 8.44 ± 0.1 µM; in assay [5] (Homo sapiens, 72 h) it was 10.1 ± 0.17 µM.
Take `N.N.[Cl][Pt][Cl]` [Cis-platinum, reference compound]: the IC50 in assay [4] (setting [9]) was 3.24 ± 0.05 µM; in assay [5] (setting [10]) it was 4.53 ± 0.03 µM.
As for `CC(=O)N1CCN(c2ccc(OCC3COC(Cn4ccnc4)(c4ccc(Cl)cc4Cl)O3)cc2)CC1` (centres unmarked) [Ketoconazole, ketoconazole, reference compound], the MIC in assay [1] (microdilution), in assay [2] (setting [6]) and in assay [3] (microdilution) was 8 µg/mL (≈ 15.1 µM) throughout.

For the origin of these results see patent US10799495B2, “Aaptamine alkaloid derivatives and synthesis method and application thereof” (RENJI HOSPITAL, SHANGHAI JIAO TONG UNIVERSITY SCHOOL OF …, priority 2017, dated 2020).
